Test results reported in patent US7772228B2, “Method for treatment of bacterial infections with once or twice-weekly administered rifalazil” (priority 1998, dated 2010).
≈ marks a conversion by molar mass, not a printed value. Where two headings read alike, the source gives them in different places.

Assays:
[1] = Clinical trial 005, rifalazil concentration in plasma of tuberculosis patients; assay type: in vivo, human; conditions: for maximum concentration of the drug in plasma: six hours; for concentration at 3 h / concentration at 11 day / concentration at 15 day / concentration at 0 h / concentration at 2 h / concentration at 5 h / concentration at 9 h / concentration at 12 h / concentration at 24 h / concentration at 48 h / concentration at 72 h: human, plasma; for concentration at 3 h: three hours; for concentration at 11 day: Day 11; for concentration at 15 day: Day 15; for concentration at 0 h: Hour 0; for concentration at 2 h: Hour 2; for concentration at 5 h: Hour 5; for concentration at 9 h: Hour 9; for concentration at 12 h: Hour 12; for concentration at 24 h: Hour 24; for concentration at 48 h: Hour 48; for concentration at 72 h: Hour 72
Description: Definite diagnosis and evaluation of treatment efficacy requires direct examination of sputum for the presence of M. tuberculosis. The extent of M. tuberculosis infection is determined by number of bacteria able to form colonies and is expressed as colony forming units. When the number of colony forming units (CFU) is high, the infection is unhindered. When the CFU decreases, the number of active M. tuberculosis bacteria decreases. The CFU, typically expressed as Log10, have therefore important diagnostic and treatment evaluative value.
Table 21 summarizes the plasma concentrations data of rifalazil measured in patients that received rifalazil at zero hour. The data are separated into 2 groups and are identified as INH+10 mg rifalazil (Group 3) and INH+25 mg rifalazil (Group 4). The concentration of rifalazil in plasma is presented in ng/mL and are shown as a timecourse (hours and days) wherein values were determined at several times over the two weeks of the study.

M. tuberculosis [2] = conditions: cited from earlier work
M. tuberculosis [3] = assay type: cell-based, Mycobacterium tuberculosis; conditions: comparison of MIC50 and MIC90, clinical isolates
[4] = human, in vivo
Description: The fourth trial (004) was a also a randomized, rising, double-blind, multiple-dose, placebo-controlled study. In this trial, weekly doses of placebo or rifalazil (25 mg or 50 mg) were administered to the subjects for a total of 4 weeks. All subjects received the dose within 30 minutes after eating a standardized breakfast and were monitored for an additional 14 days after the last dose. Four subjects were randomized to placebo, six subjects to 25 mg rifalazil, and eight subjects to 50 mg rifalazil.
Laboratory testing regimen for 003 and 004 trials was the same as for 001 and 002 trials.
Results obtained in 004 clinical trial where the healthy volunteers received only one dose a week for four weeks are seen in FIGS. 8-10.

[5] = tested on: M. tuberculosis in human macrophages; conditions: intracellular, cited from earlier work
[6] = 10 mg, INH + 10 mg KRM, read-out: Rifalazil Concentration in Plasma, Max
[7] = 10 mg, INH + 10 mg KRM, read-out: Rifalazil Concentration in Plasma, Med
[8] = 10 mg, INH + 10 mg KRM, read-out: Rifalazil Concentration in Plasma, Min
[9] = 25 mg, INH + 25 mg KRM, read-out: Rifalazil Concentration in Plasma, Max
[10] = 25 mg, INH + 25 mg KRM, read-out: Rifalazil Concentration in Plasma, Mean
[11] = 25 mg, INH + 25 mg KRM, read-out: Rifalazil Concentration in Plasma, Med
[12] = 25 mg, INH + 25 mg KRM, read-out: Rifalazil Concentration in Plasma, Min
[13] = INH + 10 mg KRM, read-out: Rifalazil Concentration in Plasma, Mean
[14] = INH + 10 mg KRM, read-out: Rifalazil Concentration in Plasma, Max
[15] = INH + 10 mg KRM, read-out: Rifalazil Concentration in Plasma, Med
[16] = INH + 10 mg KRM, read-out: Rifalazil Concentration in Plasma, Min
[17] = INH + 25 mg KRM, read-out: Rifalazil Concentration in Plasma, Max
[18] = INH + 25 mg KRM, read-out: Rifalazil Concentration in Plasma, Mean
[19] = INH + 25 mg KRM, read-out: Rifalazil Concentration in Plasma, Med
[20] = INH + 25 mg KRM, read-out: Rifalazil Concentration in Plasma, Min

SMILES: CO[C@H]1/C=C/O[C@@]2(C)Oc3c(C)c(O)c4c(=O)c(c5oc6cc(N7CCN(CC(C)C)CC7)cc(O)c6nc-5c4c3C2=O)NC(=O)/C(C)=C\C=C\[C@H](C)[C@H](O)[C@@H](C)[C@@H](O)[C@@H](C)[C@H](OC(C)=O)[C@@H]1C [Rifalazil, 3′-hydroxy-5′-(4-isobutyl-1-piperazinyl)benzoxasinorifamycin]
- maximum concentration of the drug in plasma ([1]; 10 mg rifalazil): 12.68 ng/mL
- maximum concentration of the drug in plasma ([1]; 25 mg rifalazil): 28.47 ng/mL
- drug in plasma ([1]; 72 hours (3 days)): still measurable amount of drug in plasma
- Rifalazil Concentration in Plasma, Max ([1]; INH + 10 mg KRM, Day 4 M-0): 0 ng/mL
- Rifalazil Concentration in Plasma, Mean ([1]; INH + 10 mg KRM, Day 4 M-0): 0 ng/mL
- Rifalazil Concentration in Plasma, Med ([1]; INH + 10 mg KRM, Day 4 M-0): 0 ng/mL
- Rifalazil Concentration in Plasma, Min ([1]; INH + 10 mg KRM, Day 4 M-0): 0 ng/mL
- Rifalazil Concentration in Plasma, Max ([1]; INH + 10 mg KRM, Day 8 M-4): 21.9 ng/mL
- Rifalazil Concentration in Plasma, Mean ([1]; INH + 10 mg KRM, Day 8 M-4): 18.31 ng/mL
- Rifalazil Concentration in Plasma, Min ([1]; INH + 10 mg KRM, Day 8 M-4): 9.7 ng/mL
- Rifalazil Concentration in Plasma, Max ([1]; INH + 25 mg KRM, Day 4 M-0): 0 ng/mL
- Rifalazil Concentration in Plasma, Mean ([1]; INH + 25 mg KRM, Day 4 M-0): 0 ng/mL
- Rifalazil Concentration in Plasma, Med ([1]; INH + 25 mg KRM, Day 4 M-0): 0 ng/mL
- Rifalazil Concentration in Plasma, Min ([1]; INH + 25 mg KRM, Day 4 M-0): 0 ng/mL
- Rifalazil Concentration in Plasma, Max ([1]; INH + 25 mg KRM, Day 8 M-4): 41.0 ng/mL
- Rifalazil Concentration in Plasma, Mean ([1]; INH + 25 mg KRM, Day 8 M-4): 29.02 ng/mL
- Rifalazil Concentration in Plasma, Med ([1]; INH + 25 mg KRM, Day 8 M-4): 28.5 ng/mL
- Rifalazil Concentration in Plasma, Min ([1]; INH + 25 mg KRM, Day 8 M-4): 11.7 ng/mL
- concentration at 3 h ([1]; 10 mg, 10 mg of rifalazil): 9.7 ng/mL
- concentration at 11 day [1, 6]: 2.5 ng/mL
- concentration at 11 day [1, 7]: 1.4 ng/mL
- concentration at 11 day [1, 8]: 2 ng/mL
- concentration at 15 day [1, 6]: 0 ng/mL
- concentration at 15 day [1, 7]: 3 ng/mL
- concentration at 15 day [1, 8]: 0 ng/mL
- concentration at 3 h ([1]; 25 mg, 25 mg rifalazil): 15.9 ng/mL
- concentration at 11 day [1, 9]: 9.1 ng/mL
- concentration at 11 day [1, 10]: 4.12 ng/mL
- concentration at 11 day [1, 11]: 3.3 ng/mL
- concentration at 11 day [1, 12]: 2.2 ng/mL
- concentration at 15 day [1, 9]: 3.4 ng/mL
- concentration at 15 day [1, 10]: 0.95 ng/mL
- concentration at 15 day [1, 11]: 0 ng/mL
- concentration at 15 day [1, 12]: 0 ng/mL
- concentration at 11 day [1, 13]: 2.4 ng/mL
- concentration at 15 day [1, 13]: 3 ng/mL
- concentration at 0 h [1, 14]: 0 ng/mL
- concentration at 0 h [1, 13]: 0 ng/mL
- concentration at 0 h [1, 15]: 3 ng/mL
- concentration at 0 h [1, 16]: 0 ng/mL
- concentration at 2 h [1, 14]: 20.3 ng/mL
- concentration at 2 h [1, 13]: 9.7 ng/mL
- concentration at 2 h [1, 15]: 9 ng/mL
- concentration at 2 h [1, 16]: 0 ng/mL
- concentration at 5 h [1, 14]: 22.7 ng/mL
- concentration at 5 h [1, 13]: 12.5 ng/mL
- concentration at 5 h [1, 15]: 11.9 ng/mL
- concentration at 5 h [1, 16]: 4.2 ng/mL
- concentration at 9 h [1, 14]: 19.2 ng/mL
- concentration at 9 h [1, 13]: 9.75 ng/mL
- concentration at 9 h [1, 15]: 10.3 ng/mL
- concentration at 9 h [1, 16]: 3 ng/mL
- concentration at 12 h [1, 14]: 11.9 ng/mL
- concentration at 12 h [1, 13]: 10.7 ng/mL
- concentration at 12 h [1, 15]: 11.4 ng/mL
- concentration at 12 h [1, 16]: 6.2 ng/mL
- concentration at 24 h [1, 14]: 5 ng/mL
- concentration at 24 h [1, 13]: 3.6 ng/mL
- concentration at 24 h [1, 15]: 3.55 ng/mL
- concentration at 24 h [1, 16]: 2.3 ng/mL
- concentration at 48 h [1, 14]: 2.5 ng/mL
- concentration at 48 h [1, 13]: 1.4 ng/mL
- concentration at 48 h [1, 15]: 2.5 ng/mL
- concentration at 48 h [1, 16]: 2.2 ng/mL
- concentration at 72 h [1, 14]: 2.2 ng/mL
- concentration at 72 h [1, 15]: 1 ng/mL
- concentration at 72 h [1, 16]: 0 ng/mL
- concentration at 0 h [1, 17]: 0 ng/mL
- concentration at 0 h [1, 18]: 0 ng/mL
- concentration at 0 h [1, 19]: 0 ng/mL
- concentration at 0 h [1, 20]: 0 ng/mL
- concentration at 2 h [1, 17]: 26.4 ng/mL
- concentration at 2 h [1, 18]: 15.3 ng/mL
- concentration at 2 h [1, 19]: 11.4 ng/mL
- concentration at 2 h [1, 20]: 2.3 ng/mL
- concentration at 5 h [1, 17]: 42.7 ng/mL
- concentration at 5 h [1, 18]: 25.5 ng/mL
- concentration at 5 h [1, 19]: 30.9 ng/mL
- concentration at 5 h [1, 20]: 5.5 ng/mL
- concentration at 9 h [1, 17]: 38.2 ng/mL
- concentration at 9 h [1, 18]: 21.6 ng/mL
- concentration at 9 h [1, 19]: 22.1 ng/mL
- concentration at 9 h [1, 20]: 4.2 ng/mL
- concentration at 12 h [1, 17]: 20.5 ng/mL
- concentration at 12 h [1, 18]: 16.3 ng/mL
- concentration at 12 h [1, 19]: 18.1 ng/mL
- concentration at 12 h [1, 20]: 11.1 ng/mL
- concentration at 24 h [1, 17]: 12.2 ng/mL
- concentration at 24 h [1, 18]: 7.72 ng/mL
- concentration at 24 h [1, 19]: 6.7 ng/mL
- concentration at 24 h [1, 20]: 4.3 ng/mL
- concentration at 48 h [1, 17]: 5.3 ng/mL
- concentration at 48 h [1, 18]: 2.15 ng/mL
- concentration at 48 h [1, 19]: 3.9 ng/mL
- concentration at 48 h [1, 20]: 0 ng/mL
- concentration at 72 h [1, 17]: 3.2 ng/mL
- concentration at 72 h [1, 18]: 2.15 ng/mL
- concentration at 72 h [1, 19]: 2.7 ng/mL
- concentration at 72 h [1, 20]: 0 ng/mL
- lesions in the lung (M. tuberculosis [2]; 10 mg/kg six times a week): no lesions observed in the lung
- reduction of log CFU in lungs (M. tuberculosis [2]; 10 mg/kg six times a week): about 80%
- reduction of the bacteria (M. tuberculosis [2]; Twice-a-week or once-a-week administration): about 35%
- reduction in CFU (M. tuberculosis [2]; once-a-week administration of these very high dosages): about 42%
- fold greater activity than rifabutin (M. tuberculosis [3]): 4 fold
- fold greater activity than rifampin (M. tuberculosis [3]): > 64 fold
- time for hematologic parameters to return to normal after the last dose [4]: ≤ 14 days
- MBC ([5]; strain Atencio): 8 ng/mL (≈ 8.5 nM)
- MIC ([5]; strain Atencio): 4 ng/mL (≈ 4.25 nM)
- MBC ([5]; strain Erdman): 8 ng/mL (≈ 8.5 nM)
- MIC ([5]; strain Erdman): 8 ng/mL (≈ 8.5 nM)
- MBC ([5]; strain H37Rv): 16 ng/mL (≈ 17 nM)
- MIC ([5]; strain H37Rv): 4 ng/mL (≈ 4.25 nM)
